Results published in patent US11649475B2, “Dioxetane compounds and their use for the detection of microorganisms” (NEMIS Technologies AG, priority 2018, dated 2023).
Like-named read-outs stand apart in the source and are kept apart here.

Experiments:
[1] = test system: Escherichia coli ATCC 25922; experiment: Luminescence of culture samples after addition of Compound Va with 15% v/v ethanol; format: cell-based; settings: for Signal to noise ratio, LB1:20 (to sterile) / RLU, 6 h LB / RLU, 6 h LB1:20: E.c.; for RLU, 6 h LB / RLU, 6 h LB1:20: 20 μM, 15% v/v ethanol, 9-10 min after addition
Procedure: (§1) Escherichia coli ATCC 25922 (E.c., beta-galactosidase positive) and Salmonella Enteritidis RKI 05/07992 (S.E., beta-galactosidase negative) were cultivated in Nutrient Broth for 17 h and then serially diluted in sterile saline (0.9% NaCl). Diluted cell suspensions were inoculated 1:100 v/v in test tubes with either full-strength LB medium (10 g/L tryptone, 5 g/L yeast extract, 5 g/L NaCl) or LB medium diluted 1:20 v/v with ultrapure water (LB1:20). All media contained 1 mM IPTG for induction of beta-galactosidase. Sterile saline was added to negative control tubes. After 6 h of cultivation at 37° C. and 150 rpm, samples (0.255 mL) were withdrawn from cultures and mixed with 45 μL stock solution of compound Va in ethanol in a white microtiter plate. […] For comparison, the same E. coli strain was pre-cultured and diluted in a similar way and then inoculated in diluted Mueller-Hinton broth (MH1:20, full-strength medium diluted 1:20 v/v with 20 mM phosphate buffer pH 7.2). The medium was supplemented with 1 mM IPTG. After 6 h of cultivation at 37° C. and 150 rpm, culture samples (45 μL) were transferred to a microtiter plate and mixed with 5 μL of 10x lysis reagent which contained 2% w/v dodecyl-trimethylammonium bromide, 1 mM D-Luciferin-6-O-beta-D-galactopyranoside (commercially available, Biosynth Cat. No. L-8600) and 10 mM magnesium chloride. Lysis and reaction with D-Luciferin-6-O-beta-D-galactopyranoside was carried out for 1 h at 37° C. Then 0.2 mL of luciferase assay mix was added (5:1 v/v). The assay mix contained 62.5 mM Tris acetate (pH 7.8), 12.5 mM magnesium sulfate, 2.5 g/L bovine serum albumin, 7.5 mM D/L-cysteine, 1.25 mM ethylene diamine tetraacetate, 25 μM sodium pyrophosphate, 10 g/L cyclodextrin, 1.25 mM adenosine 5-triphosphate and 13.1 μg/mL commercially available Photinus pyralis luciferase (recombinant). Light emission was recorded with a SpectraMax M5 plate reader.

[2] = test system: Salmonella Enteritidis RKI 05/07992; experiment: as above; format: cell-based; settings: S.E., inoculation density 10^6 CFU/mL
Procedure: as §1

[3] = test system: Salmonella Enteritidis RKI 05/07992; experiment: Luminescence of cultures containing D-luciferin-6-O-phenyl-caprylate after mixing with luciferase assay mix; format: cell-based, Salmonella enterica ssp. enterica ser. Enteritidis; settings: S.E.; for RLU, 6 h: 0.1 mM in Nutrient Broth, first 3 min after luciferase assay mix
Procedure: D-luciferin-6-O-phenyl-caprylate was synthesized according to procedures known to persons skilled in the art. Salmonella Enteritidis RKI 05/07992 (S.E., Salmonella enterica ssp. enterica ser. Enteritidis, C8 esterase positive) was cultivated in Nutrient Broth (5 g/L peptone, 5 g/L NaCl, 2 g/L […], 1 g/L […], pH 7.4) for 16 h and then serially diluted in sterile saline (0.9% NaCl). Diluted cell suspensions were inoculated 1:100 v/v in test tubes with Nutrient Broth containing 0.1 mM D-luciferin-6-O-phenyl-caprylate. […] Light emission was recorded with a plate reader equipped with a luminescence detection system. Mean RLU (relative light unit) values of first 3 min after addition of luciferase assay mix were compared (Table VII).

[4] = test system: Escherichia coli ATCC 25922; experiment: Luminescence of culture samples of carbapenem resistant and sensitive bacteria after addition of compound VIIa; format: cell-based; settings: E.c.; for RLU max. (with 10 μM VI): 6 h culture, 30 min recording
Procedure: (§2) Carbapenem resistant bacterial strains Pseudomonas aeruginosa RKI 48/09 (IMP-2) (P.a.-Imp^R) and Klebsiella pneumoniae RKI 92/08 (KPC-2) (K.p.-Imp^R) were cultivated on trypticase soy agar supplemented with 8 mg/L and […] imipenem, respectively. Carbapenem sensitive strain Escherichia coli ATCC 25922 (E.c.) was cultivated on trypticase soy agar. Nutrient broth (for composition and pH see previous examples, 3 mL in 15 mL tubes) with and without imipenem was inoculated with imipenem resistant and sensitive bacteria from agar plates. Tube cultures were incubated for 6 h at 37° C. and 150 rpm. Culture samples (0.255 mL) were transferred to wells of a white microtiter plate and mixed with 45 μL stock solution of compound Vila in ethanol. Final concentrations of compound Vila, ethanol and dimethyl sulfoxide were 10 μM, […] and 1% v/v, respectively. Luminescence was recorded after addition of […] for 30 min with a plate reader.

[5] = test system: Pseudomonas aeruginosa RKI 48/09 (IMP-2); format: cell-based; settings: P.a.-Imp^R; for RLU max. (with 10 μM VI): 6 h culture, 30 min recording
Procedure: as §2

[6] = test system: Klebsiella pneumoniae RKI 92/08 (KPC-2); format: cell-based; settings: K.p.-Imp^R; for RLU max. (with 10 μM VI): 6 h culture, 30 min recording
Procedure: as §2

[7] = test system: Escherichia coli ATCC 25922; settings: E.c.; for Signal to noise ratio (to sterile): MH1:20; for RLU, 6 h MH1:20: first two minutes of measurement
Procedure: as §1

[8] = inoculation density 10^2 CFU/mL
[9] = inoculation density 10^3 CFU/mL
[10] = inoculation density 10^4 CFU/mL
[11] = inoculation density 10^5 CFU/mL
[12] = inoculation density 10^6 CFU/mL
[13] = 20 μM, 15% v/v ethanol, 9-10 min after addition
[14] = imipenem 4 mg/L in nutrient broth

COC(=O)/C=C/c1ccc(C2(OC)OOC23C2CC4CC(C2)CC3C4)c(Cl)c1OCc1ccc(OC2OC(CO)C(O)C(O)C2O)cc1 (centres unmarked) [Compound Va]
Signal to noise ratio, LB1:20 (to sterile) [1, 8]: 14
RLU, 6 h LB [1, 8]: 551 RLU
RLU, 6 h LB1:20 [1, 8]: 1369 RLU
Signal to noise ratio, LB1:20 (to sterile) [1, 9]: 79
RLU, 6 h LB [1, 9]: 3317 RLU
RLU, 6 h LB1:20 [1, 9]: 7690 RLU
Signal to noise ratio, LB1:20 (to sterile) [1, 10]: 1085
RLU, 6 h LB [1, 10]: 49434 RLU
RLU, 6 h LB1:20 [1, 10]: 105252 RLU
Signal to noise ratio, LB1:20 (to sterile) [1, 11]: 1698
RLU, 6 h LB [1, 11]: 43412 RLU
RLU, 6 h LB1:20 [1, 11]: 164721 RLU
Signal to noise ratio, LB1:20 (to sterile) [1, 12]: 871
RLU, 6 h LB [1, 12]: 18830 RLU
RLU, 6 h LB1:20 [1, 12]: 84511 RLU
signal to noise ratio higher than with D-Luciferin-6-O-beta-D-galactopyranoside ([1]; lowest tested inoculation density of E. coli, 5-fold lower working concentration): 9 fold
Signal to noise ratio, LB1:20 (to sterile) [2]: 1
RLU, 6 h LB [2, 13]: 66 RLU
RLU, 6 h LB1:20 [2, 13]: 125 RLU

CCCCCCCC(=O)Oc1ccc(COc2ccc3nc(C4=N[C@@H](C(=O)O)CS4)sc3c2)cc1 [D-luciferin-6-O-phenyl-caprylate]
Signal to noise ratio (to sterile) [3, 8]: 1.1
RLU, 6 h [3, 8]: 18354 RLU
Signal to noise ratio (to sterile) [3, 10]: 1.6
RLU, 6 h [3, 10]: 27783 RLU
Signal to noise ratio (to sterile) [3, 12]: 24
RLU, 6 h [3, 12]: 417195 RLU

C[C@@H](O)[C@H]1C(=O)N2C(C(=O)O)=C(SCCN=CN)C[C@H]12 [Imipenem, imipenem, reference compound]
OD600 6 h [4, 14]: 0.01
OD600 6 h ([5]; imipenem 8 mg/L in nutrient broth): 0.48
OD600 6 h [6, 14]: 0.50

COC(=O)/C=C/c1ccc(C2(OC)OOC23C2CC4CC(C2)CC3C4)c(Cl)c1OCc1ccc(C2=C(C(=O)O)N3C(=O)[C@H]([C@@H](C)O)[C@H]3[C@H]2C)cc1 (stereo partly drawn) [VIIa, (4S,5R,6S)-3-(4-((2-Chloro-6-((E)-3-methoxy-3-oxoprop-1-en-1-yl)-3-((1r,3r,5S,7S)-4′-methoxyspiro[adamantane-2,3′-[1,2]dioxetan]-4′-yl)phenoxy)methyl)phenyl)-6-((R)-1-hydroxyethyl)-4-methyl-7-oxo-1-azabicyclo[3.2.0]hept-2-ene-2-carboxylicacid]
RLU max. (with 10 μM VI) ([4]; imipenem 0 mg/L): 8181 RLU
RLU max. (with 10 μM VI) ([4]; imipenem 4 mg/L): 7992 RLU
Signal to noise ratio (to E.c.) ([5]; imipenem 0 mg/L): 2.4
RLU max. (with 10 μM VI) ([5]; imipenem 0 mg/L): 19940 RLU
Signal to noise ratio (to E.c.) ([5]; imipenem 8 mg/L): 2.6
RLU max. (with 10 μM VI) ([5]; imipenem 8 mg/L): 21028 RLU
Signal to noise ratio (to E.c.) ([6]; imipenem 0 mg/L): 8.9
RLU max. (with 10 μM VI) ([6]; imipenem 0 mg/L): 72951 RLU
Signal to noise ratio (to E.c.) ([6]; imipenem 4 mg/L): 8.8
RLU max. (with 10 μM VI) ([6]; imipenem 4 mg/L): 72272 RLU

D-Luciferin-6-O-beta-D-galactopyranoside
Signal to noise ratio (to sterile) [7, 8]: 1.5
RLU, 6 h MH1:20 [7, 8]: 13367 RLU
Signal to noise ratio (to sterile) [7, 10]: 377
RLU, 6 h MH1:20 [7, 10]: 3306967 RLU
Signal to noise ratio (to sterile) [7, 12]: 544
RLU, 6 h MH1:20 [7, 12]: 4777613 RLU
